Seven molecules from patent US12202835B2, “Substituted aromatic ring-linked dioxinoquinazolines and dioxinoquinolines as kinase inhibitors” (BEIJING SCITECH-MQ PHARMACEUTICALS LIMITED, priority 2018, dated 2025) can be followed below.

Molecules are shown by their SMILES. Bounds are passed on as bounds.

Holding throughout (assay type): biochemical
For experiment [1], the target named is TRKA kinase (Homo sapiens (Human), UniProt P04629). Kind of experiment: Assay of small molecular compounds for inhibiting the activity of TRKA kinase (LANCE TR-FRET). As to the method: The assay of small molecular compounds for inhibiting the activity of TRKA kinase is based on the LANCE TR-FRET technology of Perkin Elmer Inc., and the assay method is as follows: • 1. […] 2.5 μL of the gradient-diluted compounds were taken with a transfer pipette to a 384-well plate. • 3. Addition of enzyme: 5 μL of 2×TRKA kinase solution (with a concentration of 2 nM) was taken with a transfer pipette to the corresponding reaction well of the 384-well plate, mixed well and pre-reacted at room temperature for 5 minutes. • 4. 2.5 μL 4× Ultra ULight-labeled TK Peptide (with a concentration of 400 nM)/ATP (with a concentration of 40 μM) mixture was taken with a transfer pipette to the corresponding reaction well of the 384-well plate. • 5. Negative control: 2.5 μL/well 4× substrate/ATP mixture and 7.5 μL 1× Kinase Assay Buffer were added to the wells of the 384-well plate.
(§1) Positive control: 2.5 μL/well 4× substrate/ATP mixture, 2.5 μL/well 1× Kinase Assay Buffer containing 4% DMSO, and 5 μL/well 2×TRKA kinase solution were added to the 384-well plate. The final concentration of DMSO in the reaction system was 1%. • 6. The mixture was mixed well and then centrifuged and reacted at room temperature in dark for 60 min. • 7. Termination of the enzymatic reaction: 5 μL of 4× stop solution was taken with a transfer pipette to the wells of the 384-well plate, mixed and then centrifuged, and reacted at room temperature for 5 min. • 8. Development of the reaction: 5 μL of 4× detection solution was taken with a transfer pipette to the wells of the 384-well plate for color development, and the mixture was mixed and then centrifuged and reacted at room temperature for 60 min. • 9. The 384-well plate was placed into the Envision plate reader and the signal was detected using the appropriate program.

The target in experiment [2] is c-MET kinase (Homo sapiens (Human), UniProt P08581). Put plainly: Assay of small molecular compounds for inhibiting the activity of c-MET kinase (LANCE TR-FRET). Conditions: read-out: CMET IC50. As to the method:
The assay is based on the LANCE TR-FRET technology of Perkin Elmer Inc., and the assay method is as follows: • 1. Dilution of compounds: a total of 11 concentrations were obtained using a 3-fold gradient dilution from the highest concentration of 2500 nM (the maximum final concentration of the drug used in this assay was 2500 nM, and the minimum final concentration was 0.042 nM). • 2. 2.5 μL of the gradient-diluted compounds were taken with a transfer pipette to a 384-well plate. • 3. Addition of enzyme: 5 μL of 2×c-MET kinase solution (with a concentration of 2 nM) was taken with a transfer pipette to the corresponding reaction well of the 384-well plate, mixed well and pre-reacted at room temperature for 5 minutes. • 4. 2.5 μL 4× Ultra ULight™-JAK-1 (Tyr1023) Peptide (with a concentration of 400 nM)/ATP (with a concentration of 40 μM) mixture was taken with a transfer pipette to the corresponding reaction well of the 384-well plate. • 5. Negative control: 2.5 μL/well 4× substrate/ATP mixture and 7.5 μL 1× Kinase Assay Buffer were added to the wells of the 384-well plate. • 6. Positive control: 2.5 μL/well 4× substrate/ATP mixture, 2.5 μL/well 1× Kinase Assay Buffer containing 16% DMSO, and 5 μL/well 2× c-MET kinase solution were added to the 384-well plate. The final concentration of DMSO in the reaction system was 4%. • 7. The mixture was mixed well and then centrifuged and reacted at room temperature in dark for 60 min. • 8. Termination of the enzymatic reaction: 5 μL of 4× stop solution was taken with a transfer pipette to the wells of the 384-well plate, mixed and then centrifuged, and reacted at room temperature for 5 min. • 9. Development of the reaction: 5 μL of 4× detection solution was taken with a transfer pipette to the wells of the 384-well plate for color development, and the mixture was mixed and then centrifuged and reacted at room temperature for 60 min. • 10. The 384-well plate was placed into the Envision plate reader and the signal was detected using the appropriate program. • 11. Analysis and processing of the raw data: • 12. The drug concentrations and the corresponding inhibition rates were input into GraphPad Prism5 for calculation, and the inhibition rate of the compounds were calculated as follows: inhibition rate (%)=(reading of positive well−reading of experimental well)/(reading of positive control well−reading of negative control well)×100%. Processing with GraphPad Prism5 software yielded the corresponding IC50 values (the concentration of the compound at which 50% of the highest inhibition of the enzyme is achieved).

Experiment [3] has as its target MER kinase (Homo sapiens (Human), UniProt Q12866). Kind of experiment: Assay of small molecular compounds for inhibiting the activity of MER kinase (LANCE TR-FRET). As to the method:
The assay of small molecular compounds for inhibiting the activity of MER kinase is based on the LANCE TR-FRET technology of Perkin Elmer Inc., and the assay method is as follows: • 1. Dilution of compounds: a total of 11 concentrations were obtained using a 3-fold gradient dilution from the highest concentration of 2500 nM (the maximum final concentration of the drug used in this assay was 2500 nM, and the minimum final concentration was 0.042 nM). • 2. 2.5 μL of the gradient-diluted compounds were taken with a transfer pipette to a 384-well plate. • 3. Addition of enzyme: 5 μL of 2×MER kinase solution (with a concentration of 1 nM) was taken with a transfer pipette to the corresponding reaction well of the 384-well plate, mixed well and pre-reacted at room temperature for 5 minutes. • 4. 2.5 μL 4× ULight-labeled Ploy GT (with a concentration of 200 nM)/ATP (with a concentration of 20 μM) mixture was taken with a transfer pipette to the corresponding reaction well of the 384-well plate. • 5. Negative control: 2.5 μL/well 4× substrate/ATP mixture and 7.5 μL 1× Kinase Assay Buffer were added to the wells of the 384-well plate.
as §1, with “2×MER” for “2×TRKA”, “program. • 10. Analysis and processing of the raw data:” for “program.”
The drug concentrations and the corresponding inhibition rates were input into GraphPad Prism5 for calculation, and the inhibition rate of the compounds were calculated as follows: inhibition rate (%)=(reading of positive well−reading of experimental well)/(reading of positive control well−reading of negative control well)×100%. Processing with GraphPad Prism5 software yielded the corresponding IC50 values (the concentration of the compound at which 50% of the highest inhibition of the enzyme is achieved).
A general note: TR-FRET usually uses a lanthanide donor and a delayed reading to cut background.

Sequence of c-MET kinase (P08581 25-1390): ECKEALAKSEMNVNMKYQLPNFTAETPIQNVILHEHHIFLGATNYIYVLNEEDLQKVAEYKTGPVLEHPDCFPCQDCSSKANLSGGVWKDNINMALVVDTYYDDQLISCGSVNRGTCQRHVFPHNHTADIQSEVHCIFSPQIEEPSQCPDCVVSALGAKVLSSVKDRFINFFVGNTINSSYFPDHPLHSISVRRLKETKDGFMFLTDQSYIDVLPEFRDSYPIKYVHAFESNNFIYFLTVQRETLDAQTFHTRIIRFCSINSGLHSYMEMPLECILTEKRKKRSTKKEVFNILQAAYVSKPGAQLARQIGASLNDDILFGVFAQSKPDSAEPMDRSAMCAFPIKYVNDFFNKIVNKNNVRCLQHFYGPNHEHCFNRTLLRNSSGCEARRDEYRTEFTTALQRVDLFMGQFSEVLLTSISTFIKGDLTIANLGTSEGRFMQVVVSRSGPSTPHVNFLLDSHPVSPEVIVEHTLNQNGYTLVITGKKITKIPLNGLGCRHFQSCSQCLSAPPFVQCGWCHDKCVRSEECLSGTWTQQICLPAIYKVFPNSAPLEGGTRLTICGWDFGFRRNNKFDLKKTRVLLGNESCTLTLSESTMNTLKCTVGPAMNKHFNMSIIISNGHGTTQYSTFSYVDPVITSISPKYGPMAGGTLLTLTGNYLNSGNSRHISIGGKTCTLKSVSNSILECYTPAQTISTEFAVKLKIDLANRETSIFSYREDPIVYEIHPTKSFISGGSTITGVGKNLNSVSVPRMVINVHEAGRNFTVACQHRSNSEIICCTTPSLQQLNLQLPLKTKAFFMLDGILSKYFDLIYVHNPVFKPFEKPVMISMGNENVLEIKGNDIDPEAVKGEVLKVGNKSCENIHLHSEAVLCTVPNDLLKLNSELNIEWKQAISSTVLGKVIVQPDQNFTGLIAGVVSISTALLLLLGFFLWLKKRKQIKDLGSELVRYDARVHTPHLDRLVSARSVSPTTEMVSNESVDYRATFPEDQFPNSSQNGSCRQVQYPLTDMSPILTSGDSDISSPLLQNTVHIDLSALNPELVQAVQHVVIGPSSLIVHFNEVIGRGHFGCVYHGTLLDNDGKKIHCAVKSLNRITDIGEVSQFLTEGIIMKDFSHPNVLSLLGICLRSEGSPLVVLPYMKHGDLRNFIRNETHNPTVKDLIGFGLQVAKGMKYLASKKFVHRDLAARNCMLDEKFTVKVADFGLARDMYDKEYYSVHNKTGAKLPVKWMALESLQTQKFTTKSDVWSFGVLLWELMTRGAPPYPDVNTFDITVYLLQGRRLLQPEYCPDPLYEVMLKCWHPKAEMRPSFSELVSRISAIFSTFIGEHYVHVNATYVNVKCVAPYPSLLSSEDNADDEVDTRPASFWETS
Sequence of TRKA kinase (P04629 33-796): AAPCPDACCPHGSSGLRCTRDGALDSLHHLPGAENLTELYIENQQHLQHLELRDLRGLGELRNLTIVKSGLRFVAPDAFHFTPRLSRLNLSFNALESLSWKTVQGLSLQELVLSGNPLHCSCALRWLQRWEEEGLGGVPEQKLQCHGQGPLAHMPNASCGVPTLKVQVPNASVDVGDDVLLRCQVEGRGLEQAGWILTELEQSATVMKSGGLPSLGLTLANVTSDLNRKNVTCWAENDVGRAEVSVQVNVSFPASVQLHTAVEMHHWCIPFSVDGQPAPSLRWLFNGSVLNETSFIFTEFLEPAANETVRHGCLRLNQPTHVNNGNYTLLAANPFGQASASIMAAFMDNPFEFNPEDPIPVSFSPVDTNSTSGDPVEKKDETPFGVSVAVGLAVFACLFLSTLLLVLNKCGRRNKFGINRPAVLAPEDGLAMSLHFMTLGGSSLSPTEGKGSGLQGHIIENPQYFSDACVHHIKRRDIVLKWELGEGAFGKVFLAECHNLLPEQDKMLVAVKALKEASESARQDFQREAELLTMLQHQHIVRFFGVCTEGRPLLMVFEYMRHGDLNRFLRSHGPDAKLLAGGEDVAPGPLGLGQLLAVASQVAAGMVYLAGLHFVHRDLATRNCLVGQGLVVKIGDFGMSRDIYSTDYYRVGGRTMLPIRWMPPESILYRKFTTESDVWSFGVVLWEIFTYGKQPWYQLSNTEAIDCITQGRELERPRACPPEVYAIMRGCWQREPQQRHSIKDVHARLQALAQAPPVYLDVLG
Sequence of MER kinase (Q12866 21-999): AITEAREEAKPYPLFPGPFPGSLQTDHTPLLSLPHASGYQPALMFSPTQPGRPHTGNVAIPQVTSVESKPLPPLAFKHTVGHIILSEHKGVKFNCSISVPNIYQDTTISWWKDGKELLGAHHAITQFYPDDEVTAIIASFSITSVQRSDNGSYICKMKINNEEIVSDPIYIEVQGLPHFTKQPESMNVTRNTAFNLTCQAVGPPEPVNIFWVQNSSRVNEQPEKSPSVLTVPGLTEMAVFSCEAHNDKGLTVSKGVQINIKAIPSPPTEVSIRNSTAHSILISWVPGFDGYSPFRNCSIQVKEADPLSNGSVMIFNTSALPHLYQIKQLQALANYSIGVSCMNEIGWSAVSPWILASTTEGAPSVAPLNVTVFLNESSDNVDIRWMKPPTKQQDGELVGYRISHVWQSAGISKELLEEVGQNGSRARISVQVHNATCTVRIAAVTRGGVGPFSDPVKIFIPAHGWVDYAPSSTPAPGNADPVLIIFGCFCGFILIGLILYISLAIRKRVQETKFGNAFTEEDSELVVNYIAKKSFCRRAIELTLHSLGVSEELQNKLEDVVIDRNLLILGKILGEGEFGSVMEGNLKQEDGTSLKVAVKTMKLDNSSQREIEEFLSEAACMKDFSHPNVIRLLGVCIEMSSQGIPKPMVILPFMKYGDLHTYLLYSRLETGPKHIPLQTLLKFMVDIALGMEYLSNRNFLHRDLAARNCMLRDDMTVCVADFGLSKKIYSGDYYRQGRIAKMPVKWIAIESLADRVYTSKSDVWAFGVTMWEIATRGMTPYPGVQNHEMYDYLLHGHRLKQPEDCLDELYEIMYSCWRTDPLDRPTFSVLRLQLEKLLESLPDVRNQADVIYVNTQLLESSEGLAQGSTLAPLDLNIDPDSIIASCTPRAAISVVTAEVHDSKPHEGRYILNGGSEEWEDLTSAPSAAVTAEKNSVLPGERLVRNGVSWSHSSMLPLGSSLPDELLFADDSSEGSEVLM

Consider `CC(C)COc1cc2nccc(Oc3ccc(NC(=O)c4cn(C)c(=O)n(-c5ccc(F)cc5)c4=O)cc3F)c2c2c1OCCO2` [Example 83, N-(3-fluoro-4-((5-(isobutoxy)-2,3-dihydro-[1,4]dioxino[2,3-f]quinolin-10-yl)oxy)phenyl)-3-(4-fluorophenyl)-1-methyl-2,4-dioxo-1,2,3,4-tetrahydropyrimidine-5-carboxamide], for which the IC50 in experiment [1] was in the range of 50 to 500 nM; in experiment [2] it was 500 to 5000 nM; in experiment [3], 50 to 500 nM.
For `COc1cc2nccc(Oc3ccc(NC(=O)c4cn(C(C)C)c(=O)n(Cc5ccc(F)cc5)c4=O)cc3F)c2c2c1OCCO2` [Example 111, N-(3-fluoro-4-((5-methoxy-2,3-dihydro-[1,4]dioxino[2,3-f]quinolin-10-yl)oxy)phenyl)-3-(4-fluorobenzyl)-1-isopropyl-2,4-dioxo-1,2,3,4-tetrahydropyrimidine-5-carboxamide], the IC50 in experiment [1] lay within 500 to 5000 nM; in experiment [2], 500 to 5000 nM; in experiment [3], 50 to 500 nM.
Turning to `COc1cc2nccc(Oc3ccc(NC(=O)c4cn(C(C)C)c(=O)n(-c5ccc(C)cc5)c4=O)cc3F)c2c2c1OCCO2` [Example 107, N-(3-fluoro-4-((5-methoxy-2,3-dihydro-[1,4]dioxino[2,3-f]quinolin-10-yl)oxy)phenyl)-3-(4-methylphenyl)-1-isopropyl-2,4-dioxo-1,2,3,4-tetrahydropyrimidine-5-carboxamide], the IC50 in experiment [1] was 500 to 5000 nM; in experiment [2] it was 50 to 500 nM; in experiment [3] it was no more than 50 nM.
In the case of `COc1cc2nccc(Oc3ccc(NC(=O)c4cn(CCCN5CCOCC5)c(=O)n(-c5ccc(F)cc5)c4=O)cc3F)c2c2c1OCCO2` [Example 102, N-(3-fluoro-4-((5-methoxy-2,3-dihydro-[1,4]dioxino[2,3-f]quinolin-10-yl)oxy)phenyl)-3-(4-fluorophenyl)-1-(3-morpholinopropyl)-2,4-dioxo-1,2,3,4-tetrahydropyrimidine-5-carboxamide], the values for the IC50 in experiment [1], in experiment [2] and in experiment [3] were 50 to 500 nM, no more than 50 nM and no more than 50 nM, respectively.
With `CCOc1cn(-c2ccc(F)cc2C)nc1C(=O)Nc1ccc(Oc2ccnc3cc(OC)c4c(c23)OCCO4)c(F)c1` [Example 25, 1-(4-fluoro-2-methylphenyl)-N-(3-fluoro-4-((5-methoxy-2,3-dihydro-[1,4]dioxino[2,3-f]quinolin-10-yl)oxy)phenyl)-4-ethoxy-1H-pyrazole-3-carboxamide], the IC50 in experiment [1], in experiment [2] and in experiment [3] was 50 to 500 nM throughout.
As to `COc1cc2nccc(Oc3cc(Cl)c(NC(=O)c4cn(C(C)C)c(=O)n(-c5ccc(F)cc5)c4=O)cc3F)c2c2c1OCCO2` [Example 118, N-(2-chloro-5-fluoro-4-((5-methoxy-2,3-dihydro-[1,4]dioxino[2,3-f]quinolin-10-yl)oxy)phenyl)-3-(4-fluorophenyl)-1-isopropyl-2,4-dioxo-1,2,3,4-tetrahydropyrimidine-5-carboxamide], the IC50 in experiment [1], in experiment [2] and in experiment [3] was 50 to 500 nM throughout.
On to `COc1cc2nccc(Oc3ccc(NC(=O)c4cn(C(C)C)c(=O)n(-c5ccccc5F)c4=O)cc3F)c2c2c1OCCO2` [Example 110, N-(3-fluoro-4-((5-methoxy-2,3-dihydro-[1,4]dioxino[2,3-f]quinolin-10-yl)oxy)phenyl)-3-(2-fluorophenyl)-1-isopropyl-2,4-dioxo-1,2,3,4-tetrahydropyrimidine-5-carboxamide], for which the IC50 is 500 to 5000 nM in experiment [1], no more than 50 nM in experiment [2] and no more than 50 nM in experiment [3].

The IC50 is the midpoint of a concentration-inhibition curve.
